Experimental data from the supplement of paper PMC11061612.

What was measured:
Test in all cases: combination Emax (second highest fraction inhibited in the dose matrix, 72 h); higher = more inhibition; extreme values may be limits of the assay
[1] = system: A375 (Melanoma)
In short: (§1)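 After 24 hours at 37°C and 5% CO2 in 1536-well plates, cells in DMEM/F12 or RPMI plus 10% FBS received two-drug dose matrices for 72 hours. Viability came from CellTiter-Glo 2.0 luminescence and was scaled as inhibition, anchored at 0 by vehicle wells and at 1 by blank wells. Combination Emax is taken as the second-highest inhibition in the matrix, and Bliss excess as the observed combination effect less EA + EB − EA·EB, with EA and EB the single-agent effects.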

[2] = system: BT-474 (Breast Carcinoma)
In short: as §1

[3] = system: C2BBe1 (Colorectal Carcinoma)
In short: as §1

[4] = system: COR-L105 (Lung Adenocarcinoma)
In short: as §1

[5] = system: JURL-MK1 (Chronic Myelogenous Leukemia)
In short: as §1

[6] = system: NCI-H1975 (Lung Adenocarcinoma)
In short: as §1

[7] = system: NCI-H2009 (Lung Adenocarcinoma)
In short: as §1

[8] = system: NCI-H2023 (Non-Small Cell Lung Carcinoma)
In short: as §1

[9] = system: NCI-H2452 (Mesothelioma)
In short: as §1

[10] = system: NCI-H835 (Other Solid Carcinomas)
In short: as §1

[11] = system: NTERA-2-cl-D1 (Other Solid Carcinomas)
In short: as §1

[12] = system: OCI-M1 (Acute Myeloid Leukemia)
In short: as §1

[13] = system: OVKATE (Ovarian Carcinoma)
In short: as §1

[14] = system: RPMI-8402 (T-Lymphoblastic Leukemia)
In short: as §1

[15] = system: RS4-11 (B-Lymphoblastic Leukemia)
In short: as §1

[16] = system: SBC-5 (Small Cell Lung Carcinoma)
In short: as §1

[17] = system: SCC90 (Head and Neck Carcinoma)
In short: as §1

[18] = system: SK-N-DZ (Neuroblastoma)
In short: as §1

[19] = system: SNU-1 (Gastric Carcinoma)
In short: as §1

[20] = system: TOV-21G (Ovarian Carcinoma)
In short: as §1

Compound | combination Emax [1] | combination Emax [2] | combination Emax [3] | combination Emax [4] | combination Emax [5] | combination Emax [6] | combination Emax [7] | combination Emax [8] | combination Emax [9] | combination Emax [10] | combination Emax [11] | combination Emax [12] | combination Emax [13] | combination Emax [14] | combination Emax [15] | combination Emax [16] | combination Emax [17] | combination Emax [18] | combination Emax [19] | combination Emax [20]
NC1(C(=O)N[C@@H](CCO)c2ccc(Cl)cc2)CCN(c2ncnc3[nH]ccc23)CC1 [Capivasertib] + CC(C)n1c(=O)n(C)c2cnc3cc(F)c(-c4ccc(OCCCN5CCCCC5)nc4)cc3c21 [AZD1390] (first compound max 10 µM, 7x7, partner max 0.3 µM) | 0.228 | 0.299 | 0.32 | 0.362 | 0.366 | 0.604 | 0.372 | 0.409 | 0.399 | 0.403 | 0.312 | 0.287 | 0.247 | 0.623 | 0.32 | 0.281 | 0.825 | 0.218 | 0.229 | 0.723
CCc1c2c(nc3ccc(O)cc13)-c1cc3c(c(=O)n1C2)COC(=O)[C@]3(O)CC [SN-38] + CN(C)CCCOc1ccc(-c2ccc3ncc4c(c3c2)n(C2CCOCC2)c(=O)n4C)cn1 [AZD0156] (first compound max 0.3 µM, 7x7, partner max 1 µM) | 0.993 | 0.0708 | 0.149 | 0.536 | 1 | 0.514 | 0.562 | 0.834 | 0.33 | 0.242 | 0.958 | 0.991 | 0.224 | 1 | 0.984 | 0.864 | 0.423 | 0.901 | 0.942 | 0.574
COc1nnc2ccc(N3CCC(c4ccc(OCCN5CCN(C)C(=O)[C@H]5C)cc4)CC3)nn12 [AZD5153] + C=CCn1c(=O)c2cnc(Nc3ccc(N4CCN(C)CC4)cc3)nc2n1-c1cccc(C(C)(C)O)n1 [AZD1775] (first compound max 1 µM, partner max 1 µM) | 0.637 | 0.526 | 0.547 | 0.474 | 0.998 | 0.728 | 0.703 | 0.501 | 0.605 | 0.582 | 0.672 | 0.999 | 0.344 | 1 | 0.979 | 0.846 | 0.714 | 0.987 | 0.737 | 0.891
CN(C)CCCOc1ccc(-c2ccc3ncc4c(c3c2)n(C2CCOCC2)c(=O)n4C)cn1 [AZD0156] + O=C(c1cc(Cc2n[nH]c(=O)c3ccccc23)ccc1F)N1CCN(C(=O)C2CC2)CC1 [Olaparib] (first compound max 3 µM, partner max 3 µM) | 0.29 | 0.27 | 0.285 | 0.358 | 0.431 | 0.39 | 0.436 | 0.369 | 0.38 | 0.224 | 0.162 | 0.534 | 0.214 | 0.666 | 0.497 | 0.194 | 0.138 | 0.373 | 0.182 | 0.282
COc1nnc2ccc(N3CCC(c4ccc(OCCN5CCN(C)C(=O)[C@H]5C)cc4)CC3)nn12 [AZD5153] + Cc1c2c(nn1C)CSCc1cc(n(C)n1)CSc1cc(c3ccccc3c1)OCCCc1c(C(=O)O)n(C)c3c-2c(Cl)ccc13 [AZD5991] (first compound max 1 µM, 7x7, partner max 1 µM) | 0.606 | 0.912 | 0.452 | 0.568 | 0.927 | 0.724 | 0.379 | 0.47 | 0.53 | 0.599 | 0.97 | 1 | 0.333 | 1 | 0.937 | 0.988 | 0.9 | 0.751 | 0.976 | 0.744
COc1cccc2c1C(=O)c1c(O)c3c(c(O)c1C2=O)C[C@@](O)(C(=O)CO)C[C@@H]3O[C@H]1C[C@H](N)[C@H](O)[C@H](C)O1 [Doxorubicin] + Cc1cc2ncnn2cc1Nc1ncc2c(n1)n(C1CCOCC1)c(=O)n2C [AZD7648] (first compound max 1 µM, 7x7, partner max 10 µM) | 0.949 | 0.197 | 0.242 | 0.473 | 1 | 0.932 | 0.546 | 0.825 | 0.462 | 0.516 | 1 | 0.963 | 0.282 | 1 | 0.977 | 0.77 | 0.603 | 0.613 | 0.848 | 0.561
COc1nnc2ccc(N3CCC(c4ccc(OCCN5CCN(C)C(=O)[C@H]5C)cc4)CC3)nn12 [AZD5153] + CCN(CCO)CCCOc1ccc2c(Nc3cc(CC(=O)Nc4cccc(F)c4)[nH]n3)ncnc2c1 [AZD2811] (first compound max 1 µM, 7x7, partner max 1 µM) | 0.562 | 0.368 | 0.558 | 0.426 | 0.898 | 0.781 | 0.382 | 0.422 | 0.433 | 0.384 | 0.68 | 1 | 0.263 | 0.999 | 0.977 | 0.718 | 0.452 | 0.8 | 0.653 | 0.749
CC(=O)c1c(C)c2cnc(Nc3ccc(N4CCNCC4)cn3)nc2n(C2CCCC2)c1=O [Palbociclib] + CC1(C)CCC(CN2CCN(c3ccc(C(=O)NS(=O)(=O)c4ccc(NCC5CCOCC5)c([N+](=O)[O-])c4)c(Oc4cnc5[nH]ccc5c4)c3)CC2)=C(c2ccc(Cl)cc2)C1 [Venetoclax] (first compound max 10 µM, 7x7, partner max 1 µM) | 0.195 | 0.0591 | 0.111 | 0.0862 | 0.661 | 0.423 | 0.0582 | 0.348 | 0.282 | 0.255 | 0.134 | 0.499 | 0.12 | 0.972 | 1 | 0.23 | 0.155 | 0.516 | 0.451 | 0.519
CC(=O)c1c(C)c2cnc(Nc3ccc(N4CCNCC4)cn3)nc2n(C2CCCC2)c1=O [Palbociclib] + Cn1cnc2c(F)c(Nc3ccc(Br)cc3Cl)c(C(=O)NOCCO)cc21 [Selumetinib] (first compound max 10 µM, 7x7, partner max 10 µM) | 0.705 | 0.0817 | 0.379 | 0.403 | 1 | 0.455 | 0.363 | 0.209 | 0.331 | 0.133 | 0.249 | 0.833 | 0.219 | 0.957 | 0.488 | 0.251 | 0.726 | 0.61 | 0.491 | 0.519
Cn1cnc2c(F)c(Nc3ccc(Br)cc3Cl)c(C(=O)NOCCO)cc21 [Selumetinib] + CCN(CCO)CCCOc1ccc2c(Nc3cc(CC(=O)Nc4cccc(F)c4)[nH]n3)ncnc2c1 [AZD2811] (first compound max 10 µM, 7x7, partner max 1 µM) | 0.718 | 0.0839 | 0.484 | 0.387 | 0.994 | 0.423 | 0.676 | 0.275 | 0.249 | 0.177 | 0.382 | 0.841 | 0.176 | 0.754 | 0.937 | 0.366 | 0.827 | 0.621 | 0.53 | 0.48
Cc1nc(-c2cn3c(n2)-c2ccc(-c4cnn(C(C)(C)C(N)=O)c4)cc2OCC3)n(C(C)C)n1 [Taselisib] + O=C(Nc1ccc2[nH]nc(-c3ccncc3)c2c1)[C@@H]1CCN(CC(=O)N2CCN(c3ccc(-c4ncccn4)cc3)CC2)C1 [SCH772984] (first compound max 10 µM, 7x7, partner max 5 µM) | 0.918 | – | – | 0.788 | – | – | 0.919 | 0.665 | 0.534 | 0.71 | 0.64 | – | 0.423 | 0.898 | – | – | – | – | – | –
CCc1c2c(nc3ccc(O)cc13)-c1cc3c(c(=O)n1C2)COC(=O)[C@]3(O)CC [SN-38] + O=C(c1cc(Cc2n[nH]c(=O)c3ccccc23)ccc1F)N1CCN(C(=O)C2CC2)CC1 [Olaparib] (first compound max 0.3 µM, 7x7, partner max 10 µM) | 0.949 | – | – | 0.401 | 1 | 0.545 | 0.442 | 0.857 | 0.316 | 0.268 | 1 | – | 0.224 | 1 | – | – | 0.632 | – | 0.926 | –
CS(=O)(=O)CCNCc1ccc(-c2ccc3ncnc(Nc4ccc(OCc5cccc(F)c5)c(Cl)c4)c3c2)o1 [Lapatinib] + NC1(c2ccc(-c3nc4ccn5c(=O)[nH]nc5c4cc3-c3ccccc3)cc2)CCC1 [MK-2206] (first compound max 10 µM, 7x7, partner max 10 µM) | 0.89 | – | – | 0.825 | – | – | 0.431 | 0.637 | 0.554 | 0.868 | 0.911 | 0.844 | 0.537 | 1 | – | 0.853 | 0.962 | – | – | –
O=C(c1cc(Cc2n[nH]c(=O)c3ccccc23)ccc1F)N1CCN(C(=O)C2CC2)CC1 [Olaparib] + COc1nnc2ccc(N3CCC(c4ccc(OCCN5CCN(C)C(=O)[C@H]5C)cc4)CC3)nn12 [AZD5153] (first compound max 10 µM, 7x7, partner max 1 µM) | 0.425 | – | – | 0.404 | – | – | 0.374 | 0.344 | 0.407 | 0.403 | 0.649 | – | 0.264 | 0.9 | – | – | – | – | – | –
